# Results taken from patent US20240315993A1, “ANTIPARASITIC COMPOUNDS” (Intervet Inc., priority 2021, published 2024).
# Where two headings read alike, the source gives them in different places.
# Columns and labels:
# [1] = test system: bed bugs (Cimex lectularius); assay: Guinea pig - efficacy against bed bug; assay type: in vivo
# Procedure: (§1) Guinea pigs were locally co-infested (using an infestation device on a shaved skin area) with juvenile soft ticks (Ornithodoros moubata) and bed bugs (Cimex lectularius) before the treatment day (Day 0) to provide a baseline-negative control value. Guinea pigs were treated orally (by gavage) or subcutaneously at a dose of 5 mg/kg bodyweight of a test compound in a formulation of 10% DMF/Emulsifier+90% Aqua ad injectabilia.
# (§2) Repeated local infestations with both parasites were performed at different time points after treatment. Within approximately 45 min after each infestation ten engorged ticks and ten engorged bed bugs were • collected and the percentage of dead and damaged parasites per species were • assessed approximately 24 hours following collection. The efficacy was • calculated as % of inhibition ‘killed+damaged’ parasites in a treated group in comparison to the baseline-negative control (using a modified Schneider Orelli's formula).
# (§3) Results: Activity of the test compounds at different evaluation time-points (≥80% inhibition were found active): […]
# [2] = test system: larvae of Rhipicephalus microplus isolates with known resistance profiles; assay: Tick larvae resistance assay (larval immersion test, LIT)
# Procedure: A tick resistance assay (i.e., larval immersion test, LIT) was carried out using larvae of several Rhipicephalus microplus isolates with known resistance profiles (i.e.: fully susceptible; resistant to dieldrin, coumaphos, DDT, chlorpyriphos, flumethrin, cypermethrin, amitraz, fluazuron).
# Tick larvae (Rhipicephalus microplus) were immersed for approximately 3 minutes in test compound solution. Tick mortality was assessed approximately 24 hours after contact exposure. The vitality of used parasites was confirmed in negative control groups (i.e., an untreated control and a solvent control).
# Rhipicephalus microplus = assay: Cattle - efficacy against one-host tick; assay type: in vivo; settings: 1 mg/kg topical (Compound 4: spray solution; others: DMA 92%/DEET 8% pour-on)
# Procedure: Cattle were infested (whole body) with up to 3000 Rhipicephalus microplus larvae two or three times per week before and after the treatment day (Day 0). Cattle of treatment groups were treated subcutaneously or topically (spray or pour-on) at a dose of 1 mg/kg bodyweight of a test compound. As subcutaneous formulation either 2-pyrrolidon 50%/Tween 80 50% or NMP 60%/PEG300 40% was used. As topical formulation either a spray solution (DMF/Emulsifier 2%/tap water 98%) (Compound 4) or a DMA 92%/DEET 8% pour-on solution (all other compounds) or a pour-on solution containing Imwitor 988 (20%)+Miglyol 840 (QS) (Compound 453 and Compound 466) or a pour-on solution containing Miglyol 840 (QS) (Compound 453) was used. Cattle of the negative control group received only the formulation excipients of the respective administration route.
# Fully engorged female ticks dropping from cattle were collected daily after treatment and counted in treatment and control groups. Efficacy was expressed using the standard ADEQ analysis method (ADEQ calculation in accordance with WAAVP guidelines for evaluating the efficacy of acaricides against ticks on ruminants; Veterinary parasitology 136 (2006) 29-43). Compounds with efficacy ≥80 percent were found active/effective. Onset of efficacy means the first Day with efficacy ≥80 percent. Duration of efficacy means the last Day with efficacy ≥80 percent.
# [3] = test system: Copepodids (juvenile sea lice stage of Lepeophtheirus salmonis); assay: Juvenile sea lice contact assay; settings: Lepeophtheirus salmonis, read-out: Sea lice inhibition (% of dead+damaged copepodids)
# Procedure: Copepodids (juvenile sea lice stage of Lepeophtheirus salmonis) were exposed to seawater spiked with declining concentrations of a test compound (dissolved in a DMSO sea-water mixture). Sea lice inhibition (% of dead+damaged copepodids) was assessed after approximately 24 hours of continuous exposure. The vitality of used parasites was confirmed in a negative (solvent) control group.
# Dermacenter variabilis = assay: Cattle - efficacy against multi-host ticks (Dermacenter variabilis); assay type: in vivo
# Procedure: (§4) Cattle were treated subcutaneously or topically (pour-on) at a dose of 5 mg/kg bodyweight of a test compound (Day 0). As subcutaneous formulation NMP 60%/PEG300 40% was used, and as pour-on formulation DMA 92%/DEET 8% was used. Cattle of the negative control group received only the formulation excipients of both formulations (SC, pour-on).
# (§5) Cattle were locally infested with 30 to 40 unfed adult ticks each of Rhipicephalus appendiculatus and Dermacenter variabilis (for both species sex ratio 1:1), by placing the ticks in an ear sleeve (R. appendiculatus) or a stockinet patch attached to the body side (D. variabilis) once before treatment, and at different time points after treatment. Free (i.e., non-attached ticks) were removed from ear sleeves/stockinet patches two days after each infestation and were excluded from the efficacy calculation.
# (§6) Compounds with efficacy ≥80 percent were found active.
# [4] = test system: Rhipicephalus appendiculatus; assay: Cattle - efficacy against multi-host ticks (Rhipicephalus appendiculatus); assay type: in vivo
# Procedure: as §4, §5, §6
# [5] = test system: Mobile stages of sea lice (pre-adults, adults of Lepeophtheirus salmonis); assay: Adult sea lice contact assay; settings: read-out: EC50 (sea lice inhibition, dead+damaged)
# Procedure: Mobile stages of sea lice (i.e., pre-adults, adults of Lepeophtheirus salmonis) were exposed to seawater spiked with declining concentrations of a test compound (dissolved in a PEG sea-water mixture). Sea lice inhibition (% of dead+damaged sea lice) was assessed after approximately 1 and 24 hours of continuous exposure in comparison to a negative (solvent) control group.
# [6] = test system: juvenile soft ticks (Ornithodoros moubata); assay: Guinea pig - efficacy against argaside tick; assay type: in vivo; settings: for duration of efficacy, subcutaneous compared with oral administration: 5 mg/kg, ticks and bed bugs
# Procedure: as §1, §2, §3
# [7] = 5 mg/kg subcutaneous, after 7 days
# [8] = 5 mg/kg subcutaneous, after 10 days
# [9] = 5 mg/kg subcutaneous, after 14 days
# [10] = 5 mg/kg subcutaneous, after 17 days
# [11] = 5 mg/kg subcutaneous, re-infested after 7 days
# [12] = 5 mg/kg subcutaneous, re-infested after 14 days
# [13] = 5 mg/kg subcutaneous, re-infested after 21 days
# [14] = 5 mg/kg subcutaneous, re-infested after 28 days
# [15] = 5 mg/kg subcutaneous, therapeutic, Day 2
# [16] = 5 mg/kg topical pour-on, re-infested after 7 days
# [17] = 5 mg/kg topical pour-on, re-infested after 14 days
# [18] = 5 mg/kg topical pour-on, re-infested after 21 days
# [19] = 5 mg/kg topical pour-on, re-infested after 28 days
# [20] = 5 mg/kg topical pour-on, re-infested after 35 days
# [21] = 5 mg/kg topical pour-on, therapeutic, Day 2
# [22] = 5 mg/kg, both administration routes (topical, subcutaneous)
compound,measurement,setting,value
O=C(Nc1ccc(F)cc1)c1cc(NC(=O)[C@H]2[C@H](c3cc(Cl)cc(Cl)c3)C2(Cl)Cl)ccc1F [Compound 446],"activity against bed bugs (≥80% inhibition, killed+damaged)","[1]; 5 mg/kg oral, Day 0",immediate activity
same,"activity against bed bugs (≥80% inhibition, killed+damaged)","[1]; 5 mg/kg oral, after 7 days",activity
same,"activity against bed bugs (≥80% inhibition, killed+damaged)","[1]; 5 mg/kg subcutaneous, Day 0",immediate activity
same,"activity against bed bugs (≥80% inhibition, killed+damaged)",[1]; [7],activity
same,"activity against bed bugs (≥80% inhibition, killed+damaged)",[1]; [8],activity
same,"activity against bed bugs (≥80% inhibition, killed+damaged)",[1]; [9],activity
same,"activity against bed bugs (≥80% inhibition, killed+damaged)",[1]; [10],activity
same,"activity against bed bugs (≥80% inhibition, killed+damaged)","[1]; 5 mg/kg subcutaneous, after 21 days",activity
same,"activity against bed bugs (≥80% inhibition, killed+damaged)","[1]; 5 mg/kg subcutaneous, after 24 days",activity
same,LC50,"[2]; isolate resistant to Coumaphos, Flumethrin, Cypermethrin",0.353 ppm
same,LC50,"[2]; isolate resistant to Coumaphos, Flumethrin, Cypermethrin, Amitraz",0.48 ppm
same,LC50,"[2]; isolate resistant to DDT, Dieldrin, Coumaphos",0.31 ppm
same,LC50,"[2]; isolate resistant to DDT, Dieldrin, Coumaphos, Chlorpyriphos",0.463 ppm
same,LC50,"[2]; isolate resistant to Dieldrin, Coumaphos, Fluazuron",0.322 ppm
same,LC50,[2]; isolate: Fully susceptible,0.344 ppm
same,duration of efficacy (last Day with efficacy ≥80 percent),Rhipicephalus microplus,47 days
same,onset of efficacy (first Day with efficacy ≥80 percent),Rhipicephalus microplus,3 days
same,inhibition at 0.001 µM,[3]; 24 h,100%
same,efficacy ≥80 percent against Dermacenter variabilis,Dermacenter variabilis; [11],prophylactic efficacy
same,efficacy ≥80 percent against Dermacenter variabilis,Dermacenter variabilis; [12],prophylactic efficacy
same,efficacy ≥80 percent against Dermacenter variabilis,Dermacenter variabilis; [13],prophylactic efficacy
same,efficacy ≥80 percent against Dermacenter variabilis,Dermacenter variabilis; [14],prophylactic efficacy
same,efficacy ≥80 percent against Dermacenter variabilis,Dermacenter variabilis; [15],therapeutic efficacy
same,efficacy ≥80 percent against Dermacenter variabilis,Dermacenter variabilis; [16],prophylactic efficacy
same,efficacy ≥80 percent against Dermacenter variabilis,Dermacenter variabilis; [17],prophylactic efficacy
same,efficacy ≥80 percent against Dermacenter variabilis,Dermacenter variabilis; [18],prophylactic efficacy
same,efficacy ≥80 percent against Dermacenter variabilis,Dermacenter variabilis; [19],prophylactic efficacy
same,efficacy ≥80 percent against Dermacenter variabilis,Dermacenter variabilis; [20],prophylactic efficacy
same,efficacy ≥80 percent against Dermacenter variabilis,Dermacenter variabilis; [21],therapeutic efficacy
same,efficacy ≥80 percent against Rhipicephalus appendiculatus,[4]; [11],prophylactic efficacy
same,efficacy ≥80 percent against Rhipicephalus appendiculatus,[4]; [12],prophylactic efficacy
same,efficacy ≥80 percent against Rhipicephalus appendiculatus,[4]; [13],prophylactic efficacy
same,efficacy ≥80 percent against Rhipicephalus appendiculatus,[4]; [15],therapeutic efficacy
same,efficacy ≥80 percent against Rhipicephalus appendiculatus,[4]; [16],prophylactic efficacy
same,efficacy ≥80 percent against Rhipicephalus appendiculatus,[4]; [17],prophylactic efficacy
same,efficacy ≥80 percent against Rhipicephalus appendiculatus,[4]; [18],prophylactic efficacy
same,efficacy ≥80 percent against Rhipicephalus appendiculatus,[4]; [19],prophylactic efficacy
same,EC50,[5],≤ 0.01 µM
same,"activity against tick nymphs (≥80% inhibition, killed+damaged)","[6]; 5 mg/kg oral, Day 0",immediate activity
same,"activity against tick nymphs (≥80% inhibition, killed+damaged)","[6]; 5 mg/kg subcutaneous, Day 0",immediate activity
same,"activity against tick nymphs (≥80% inhibition, killed+damaged)",[6]; [7],activity
same,"activity against tick nymphs (≥80% inhibition, killed+damaged)",[6]; [8],activity
same,"activity against tick nymphs (≥80% inhibition, killed+damaged)",[6]; [9],activity
same,"activity against tick nymphs (≥80% inhibition, killed+damaged)",[6]; [10],activity
same,"duration of efficacy, subcutaneous compared with oral administration",[6],longer duration of efficacy
O=C(Nc1ccc(F)cc1F)c1cc(NC(=O)[C@H]2[C@H](c3cc(Cl)cc(Cl)c3)C2(Cl)Cl)ccc1F [Compound 447],"activity against bed bugs (≥80% inhibition, killed+damaged)","[1]; 5 mg/kg oral, Day 0",immediate activity
same,"activity against bed bugs (≥80% inhibition, killed+damaged)","[1]; 5 mg/kg oral, after 7 days",activity
same,"activity against bed bugs (≥80% inhibition, killed+damaged)","[1]; 5 mg/kg subcutaneous, Day 0",immediate activity
same,"activity against bed bugs (≥80% inhibition, killed+damaged)",[1]; [7],activity
same,"activity against bed bugs (≥80% inhibition, killed+damaged)",[1]; [8],activity
same,duration of efficacy (last Day with efficacy ≥80 percent),Rhipicephalus microplus,≥ 57 days
same,onset of efficacy (first Day with efficacy ≥80 percent),Rhipicephalus microplus,4 days
same,inhibition at 0.01 µM,"[3]; 10 nM in seawater, ~24 h",100%
same,efficacy ≥80 percent against Dermacenter variabilis,Dermacenter variabilis; [11],prophylactic efficacy
same,efficacy ≥80 percent against Dermacenter variabilis,Dermacenter variabilis; [14],prophylactic efficacy
same,efficacy ≥80 percent against Dermacenter variabilis,Dermacenter variabilis; [15],therapeutic efficacy
same,efficacy ≥80 percent against Dermacenter variabilis,Dermacenter variabilis; [16],prophylactic efficacy
same,efficacy ≥80 percent against Dermacenter variabilis,Dermacenter variabilis; [19],prophylactic efficacy
same,efficacy ≥80 percent against Dermacenter variabilis,Dermacenter variabilis; [21],therapeutic efficacy
same,effective in treating existing tick infestations,Dermacenter variabilis; [22],100%
same,efficacy ≥80 percent against Rhipicephalus appendiculatus,[4]; [13],prophylactic efficacy
same,efficacy ≥80 percent against Rhipicephalus appendiculatus,[4]; [15],therapeutic efficacy
same,efficacy ≥80 percent against Rhipicephalus appendiculatus,[4]; [16],prophylactic efficacy
same,efficacy ≥80 percent against Rhipicephalus appendiculatus,[4]; [17],prophylactic efficacy
same,efficacy ≥80 percent against Rhipicephalus appendiculatus,[4]; [19],prophylactic efficacy
same,efficacy ≥80 percent against Rhipicephalus appendiculatus,[4]; [20],prophylactic efficacy
same,efficacy ≥80 percent against Rhipicephalus appendiculatus,[4]; [21],therapeutic efficacy
same,effective in treating existing tick infestations,[4]; [22],100%
same,EC50,"[5]; pre-adults/adults, assessed after ~1 and 24 h",≤ 0.01 µM
same,"activity against tick nymphs (≥80% inhibition, killed+damaged)","[6]; 5 mg/kg oral, Day 0",immediate activity
same,"activity against tick nymphs (≥80% inhibition, killed+damaged)","[6]; 5 mg/kg oral, after 7 days",activity
same,"activity against tick nymphs (≥80% inhibition, killed+damaged)","[6]; 5 mg/kg subcutaneous, Day 0",immediate activity
same,"activity against tick nymphs (≥80% inhibition, killed+damaged)",[6]; [7],activity
same,"activity against tick nymphs (≥80% inhibition, killed+damaged)",[6]; [8],activity
same,"activity against tick nymphs (≥80% inhibition, killed+damaged)",[6]; [9],activity
same,"activity against tick nymphs (≥80% inhibition, killed+damaged)",[6]; [10],activity
same,"duration of efficacy, subcutaneous compared with oral administration",[6],longer duration of efficacy
